According to patent US9371351B2, “Glycomimetics as Pseudomonas aeruginosa lectin inhibitors” (priority 2012, dated 2016):
Where two headings read alike, the source gives them in different places.

Columns and labels:
[1] = biological target: T1, LecB (Pseudomonas aeruginosa, UniProt Q9HYN5); test: biochemical; type: binding
Excerpt: (§1) In this assay format, the displacement of a fluorescently-labeled reporter ligand bound to the receptor by an inhibitor can be measured by mixing protein, inhibitor and reporter ligand in a given buffer system.

[2] = biological target: T1, LecB; test: biochemical; type: binding; settings: for rIC50 (MeMan): IC50 relative to Me-α-Man, below 1 = stronger ligand than Me-α-Man
Procedure: A LecB competition assay was carried out by a novel fluorescence polarization assay developed by the inventors of the present invention. To date, an enzyme-linked lectin assay (ELLA) is widely used for the evaluation in screening of the binding potential of ligands to LecB. This allows the evaluation of molecules over a broad affinity range, including monovalent ligands and oligomeric dendrimers thereof. ELLAs have been developed based on enzyme-linked immunosorbent assays (ELISA). […] Furthermore, the current ELLA protocol involves either a surface immobilization of LecB or a covalent modification of the lectin, which could interfere with ligand binding. Consequently, hits from the ELLA are usually further characterized by direct measurement of the binding process of the ligand with the native, unmodified protein using microcalorimetry, requiring large amounts of protein.
as §1
Similar conditions were applied, but the protein concentration was fixed at 150 nM. […] The resulting sigmoidal data points on the logarithmic inhibitor concentration scale were used to fit a one-site inhibition model and obtain IC50 values.
After addition of the reagents, the microtiter plates were centrifuged at 800 rpm for 1 min at 23° C. and incubated for 6 h at room temperature. The fluorescence was measured on a Tecan […] F500 plate reader (Tecan Austria GmbH) with excitation filters at 485 nm and emission filters at 535 nm in black 384-well microtiter plates (Greiner Bio-One). The G-factor was set on 0.92154 and the gain to 80. The measured intensities were reduced by buffer values. The data were analyzed with Graphpad Prism 5 and fitted according to the four parameter variable slope model.

[3] = biological target: T1, LecB; test: Binding thermodynamics to LecB by isothermal calorimetry; settings: average of two measurements
[4] = biological target: T1, LecB; settings: LecB 13 μg/mL and S. cerevisiae
Excerpt: (§2) This agglutination could then be disrupted by addition of inhibitors of LecB.
(§3) For the yeast agglutination, PBS-washed S. cerevisiae strain ss328 was used instead of sheep red blood cells, without papain treatment.

[5] = biological target: T1, LecB; settings: LecB and papain treated sheep erythrocytes
Excerpt: as §2, §3

[6] = biological target: T1, LecB; test: biochemical; type: binding; settings: for kd: SPR, 1:1 binding model; for kon: pH 7.4, read-out: ka

T1 sequence (Q9HYN5 entry or part of it): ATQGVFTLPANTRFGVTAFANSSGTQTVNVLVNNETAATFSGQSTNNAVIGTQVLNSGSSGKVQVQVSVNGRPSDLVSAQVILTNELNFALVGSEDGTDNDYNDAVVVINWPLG

Row | SMILES | IC50 [2] | rIC50 (MeMan) [2] | other results
1 | O=C1OC2(c3ccc(O)cc3Oc3cc(O)ccc32)c2ccc(NC(=S)NCCO[C@H]3O[C@H](CO)[C@@H](O)[C@H](O)[C@@H]3O)cc21 [reporter ligand 5, N-(fluorescein-5-yl)-N′-(α-D-mannopyranosylethylen)-thiocarbamide] | – | – | EC50 ([1]; titration of reporter ligand with LecB, fluorescence polarization, read-out: EC50): > 16 µM
2 | COC1O[C@H](CNS(=O)(=O)/C=C/c2ccccc2)C(O)C(O)[C@@H]1O (stereo partly drawn) [compound 14, Methyl 6-(trans-β-styrenesulfonylamido)-6-deoxy-α-D-mannopyranoside] | 79 µM | – | –
3 | CO[C@H]1O[C@H](CNS(=O)(=O)c2c(C(C)C)cc(C(C)C)cc2C(C)C)[C@@H](O)[C@H](O)[C@@H]1O [10f, Methyl 6-(2,4,6-triisopropylphenylsulfonylamido)-6-deoxy-α-D-mannopyranoside] | 11.5 µM | 0.05 | –
4 | CO[C@H]1O[C@H](CNS(=O)(=O)c2ccc([N+](=O)[O-])cc2)[C@@H](O)[C@H](O)[C@@H]1O [10d, Methyl 6-(4-nitrophenylsulfonylamido)-6-deoxy-α-D-mannopyranoside] | 47.4 µM | 0.21 | –
5 | CO[C@H]1O[C@H](CNS(=O)(=O)c2ccc(C)cc2)[C@@H](O)[C@H](O)[C@@H]1O [10b, Methyl 6-(p-tosylamido)-6-deoxy-α-D-mannopyranoside] | 68.2 µM | 0.31 | –
6 | CO[C@H]1O[C@H](CO)[C@@H](O)[C@H](O)[C@@H]1O [Me-α-D-Man, methyl α-D-mannopyranoside, reference compound] | – | – | TΔS [3]: 2.6 kcal/mol; ΔH [3]: -3.2 kcal/mol; inhibition of agglutination at (concentration) [4]: 444 µM; inhibited agglutination at (concentration) [5]: 113 µM
7 | CO[C@H]1O[C@H](CNS(=O)(=O)c2ccccc2)[C@@H](O)[C@H](O)[C@@H]1O [10a, Methyl 6-(phenylsulfonylamido)-6-deoxy-α-D-mannopyranoside] | – | 0.09 | –
8 | CO[C@H]1O[C@H](CNC(=O)/C=C/c2ccc(N)cc2)[C@@H](O)[C@H](O)[C@@H]1O [11j, Methyl 6-(4-aminocinnamido)-6-deoxy-α-D-mannopyranoside] | 53.2 µM | 0.24 | –
9 | CO[C@H]1O[C@H](CNC(=O)/C=C/c2ccc([N+](=O)[O-])cc2)[C@@H](O)[C@H](O)[C@@H]1O [11i, Methyl 6-(4-nitrocinnamido)-6-deoxy-α-D-mannopyranoside] | 106 µM | 0.49 | –
10 | CO[C@H]1O[C@H](CNC(=O)/C=C/c2cccc(N)c2)[C@@H](O)[C@H](O)[C@@H]1O [11g, Methyl 6-(3-aminocinnamido)-6-deoxy-α-D-mannopyranoside] | 63 µM | 0.29 | –
11 | CC1O[C@H](CNS(=O)(=O)/C=C/c2ccccc2)C(O)C(O)[C@@H]1O (stereo partly drawn) [compound 15, N-(6S-Methyl-3R,4R,5R-trihydroxy-tetrahydropyranosyl-2R-methyl)-trans-β-styrene sulfonamide] | 12.7 µM | – | –
12 | Cc1cc(C)c(S(=O)(=O)NC[C@H]2OC(C)[C@@H](O)C(O)C2O)c(C)c1 (stereo partly drawn) [13b, N-(6S-Methyl-3R,4R,5R-trihydroxy-tetrahydropyranosyl-2R-methyl)-2,4,6-trimethylphenyl sulfonamide] | – | – | kd [6]: 0.00041 s⁻¹; kon [6]: 1260 M⁻¹ s⁻¹
13 | CO[C@H]1O[C@H](CNC(=O)/C=C/c2ccc(C)cc2)[C@@H](O)[C@H](O)[C@@H]1O [11k, Methyl 6-(4-methylcinnamido)-6-deoxy-α-D-mannopyranoside] | – | 0.16 | –
14 | CO[C@H]1O[C@H](CNS(=O)(=O)c2ccc(Br)cc2)[C@@H](O)[C@H](O)[C@@H]1O [10c, Methyl 6-(4-bromophenylsulfonylamido)-6-deoxy-α-D-mannopyranoside] | 24.9 µM | 0.12 | –
15 | CO[C@H]1O[C@H](CNC(=O)Cc2ccccc2)[C@@H](O)[C@H](O)[C@@H]1O [11q, Methyl 6-(phenylacetamido)-6-deoxy-α-D-mannopyranoside] | 205 µM | 0.93 | –
16 | CO[C@H]1O[C@H](CNC(=O)/C=C/c2ccc(Cl)cc2)[C@@H](O)[C@H](O)[C@@H]1O [11l, Methyl 6-(4-chlorocinnamido)-6-deoxy-α-D-mannopyranoside] | 48.4 µM | 0.22 | –

Row | SMILES | IC50 [2] | rIC50 (MeMan) [2] | other results
17 | CO[C@H]1O[C@H](CNC(=O)/C=C/c2ccccc2C)[C@@H](O)[C@H](O)[C@@H]1O [11e, Methyl 6-(2-methylcinnamido)-6-deoxy-α-D-mannopyranoside] | 62.7 µM | 0.29 | –
18 | COc1ccccc1/C=C/C(=O)NC[C@H]1O[C@H](OC)[C@@H](O)[C@@H](O)[C@@H]1O [11b, Methyl 6-(2-methoxycinnamido)-6-deoxy-α-D-mannopyranoside] | 45.8 µM | 0.21 | –
19 | CO[C@H]1O[C@H](CNS(=O)(=O)c2c(C)cc(C)cc2C)[C@@H](O)[C@H](O)[C@@H]1O [10e, Methyl 6-(2,4,6-trimethylphenylsulfonylamido)-6-deoxy-α-D-mannopyranoside] | – | 0.015 | –
20 | COc1ccc(/C=C/C(=O)NC[C@H]2O[C@H](OC)[C@@H](O)[C@@H](O)[C@@H]2O)cc1 [11h, Methyl 6-(4-methoxycinnamido)-6-deoxy-α-D-mannopyranoside] | 66 µM | 0.3 | –
21 | CO[C@H]1O[C@H](CNC(=O)/C=C/c2ccc3c(c2)OCO3)[C@@H](O)[C@H](O)[C@@H]1O [11o, Methyl 6-(3,4-methylenedioxycinnamido)-6-deoxy-α-D-mannopyranoside] | 31.8 µM | 0.15 | –
22 | CC1OC(CNC(=O)/C=C/c2ccccc2)C(O)C(O)[C@@H]1O (stereo partly drawn) [compound 13, N-(6S-Methyl-3R,4R,5R-trihydroxy-tetrahydropyranosyl-2R-methyl)-cinnamide] | – | 0.1 | kd [6]: 0.00041 s⁻¹; kon [6]: 255 M⁻¹ s⁻¹
23 | CO[C@H]1O[C@H](CNC(=O)/C=C/c2cccc([N+](=O)[O-])c2)[C@@H](O)[C@H](O)[C@@H]1O [11f, Methyl 6-(3-nitrocinnamido)-6-deoxy-α-D-mannopyranoside] | 53.4 µM | 0.25 | –
24 | CO[C@H]1O[C@H](CNC(=O)c2ccc3ccccc3c2)[C@@H](O)[C@H](O)[C@@H]1O [11t, Methyl 6-(2-naphtoylamido)-6-deoxy-α-D-mannopyranoside] | 118 µM | 0.54 | –
25 | CO[C@H]1O[C@H](CNC(=O)/C=C/c2ccc(Cl)cc2Cl)[C@@H](O)[C@H](O)[C@@H]1O [11m, Methyl 6-(2,4-dichlorocinnamido)-6-deoxy-α-D-mannopyranoside] | 71 µM | 0.32 | –
26 | CO[C@H]1O[C@H](CNC(=O)c2ccc([N+](=O)[O-])cc2)[C@@H](O)[C@H](O)[C@@H]1O [11r, Methyl 6-(4-nitrobenzoylamido)-6-deoxy-α-D-mannopyranoside] | 206 µM | 0.94 | –
27 | CO[C@H]1O[C@H](CNC(=O)/C=C/c2ccccc2)[C@@H](O)[C@H](O)[C@@H]1O [11a, Methyl 6-(cinnamido)-6-deoxy-α-D-mannopyranoside] | – | 0.3 | TΔS [3]: 3.4 kcal/mol; ΔH [3]: -2.9 kcal/mol; inhibition of agglutination at (concentration) [4]: 197 µM; inhibited agglutination at (concentration) [5]: 23 µM
28 | COc1ccc(/C=C/C(=O)NC[C@H]2O[C@H](OC)[C@@H](O)[C@@H](O)[C@@H]2O)cc1OC [11n, Methyl 6-(3,4-dimethoxycinnamido)-6-deoxy-α-D-mannopyranoside] | – | 0.13 | kd [6]: 0.0013 s⁻¹
29 | CO[C@H]1O[C@H](CNC(=O)/C=C/c2ccccc2[N+](=O)[O-])[C@@H](O)[C@H](O)[C@@H]1O [11c, Methyl 6-(2-nitrocinnamido)-6-deoxy-α-D-mannopyranoside] | 75.5 µM | 0.35 | –
30 | CO[C@H]1O[C@H](CNC(=O)/C=C/c2ccccc2N)[C@@H](O)[C@H](O)[C@@H]1O [11d, Methyl 6-(2-aminocinnamido)-6-deoxy-α-D-mannopyranoside] | 52.6 µM | 0.24 | –
31 | CO[C@H]1O[C@H](CNC(=O)c2ccccc2Cl)[C@@H](O)[C@H](O)[C@@H]1O [11s, Methyl 6-(2-chlorobenzoylamido)-6-deoxy-α-D-mannopyranoside] | 239 µM | 1.09 | –
32 | CC1OC(OCCNC(=S)Nc2ccc(-c3c4ccc(=O)cc-4oc4cc(O)ccc34)c(C(=O)O)c2)C(O)C(O)C1O (mixture of isomers) [reporter ligand 3, N-(fluorescein-5-yl)-N′-(α-L-fucopyranosylethylen)-thiocarbamide] | – | – | EC50 [1]: 0.697 µM
